Consider six molecules from patent publication US20080044404A1, “Annexin V for Preventing Atherothrombosis and Plaque Rupture” (priority 2004, published 2008).

Several values for one entry are separate records, joined by “and”; a condition that tells them apart may be missing. Identical values can stand only once. Like-named read-outs stand apart in the source and are kept apart here.

Data set [1] can be described thus: Serum binding to antigen after preincubation of serum with antigen. To be noted: preincubation of serum with high capacity to induce decreased binding. The source says: Polysorp F96 microtiter immuno-plates were purchased from Nunc (Roskilde Denmark), PC-BSA (Phosphorylcholine-Bovine Serum Albumin) was purchased from Biosearch Technologies, INC (USA). Bovine serum albumin (BSA), Alkaline phosphatase conjugated goat anti-human IgG (r-chain specific), Alkaline phosphatase conjugated goat anti-human IgM (u-chain specific), PNPP(Alkaline phosphatase substrate), were obtained from Sigma (St. Louis, Mo., USA). For example, IgG and IgM antibodies to PC-BSA were determined by enzyme-linked immunosorbent assay (ELISA). Pooled serum from 17 antiphospholipid syndrome patients was used as an internal standard and tested on every plate. […] F96 microtiter polysorp plate was therefore coated with PC-BSA (10 μg/ml) 50 μl/well in PBS. Coated plates were incubated overnight at 4° C. After five washings with PBS, the plates were blocked with 2% BSA-PBS for 2 h at room temperature and washed as described above. Serum samples were diluted (1:30) in 0.2% BSA-PBS and added at 50 μl/well.

Data set [2] concerns human umbilical endothelia cells (HUVECs). Put plainly: Annexin V binding to HUVECs after 24 hrs culture with high aPLs titer serum pre-incubated with test substance, flow cytometry. The data set is classed as cell-based. As to conditions: for Mean % of APS, Av / Median % of APS, Av: average of three; for Mean % of APS, Av / Median % of APS, Av / Mean % of APS / Median % of APS: 24 hrs culture; for Mean % of APS / Median % of APS: single experiments; for Effect on Annexin V binding to endothelial cells: preincubation of serum known to decrease binding; for Geo Mean (fluorescence) / Mean (fluorescence) / Median (fluorescence) / Peak Ch / % Gated (Annexin V positive region): file '100' 24 hrs on HUVEC. The method, then:
Cryopreserved pooled human umbilical venous endothelial cells (HUVECs) at passage 2 were purchased from Cascade Biologics, Inc. (Portland, Oreg., USA) the cultures were maintained in EGM™ phenol red-free medium (Clonetics, San Diego, Calif., USA), containing 2% of fetal bovine serum and supplements. The cells were incubated in 75 cm2 flasks (TPP, AG, Trasadingen, Switzerland) under humidified 5% CO2 in 37° C. conditions. All experiments were performed at passage 3 to 4. HUVECs were seeded at 2×10^4 cells/ml density in 12-well plates (NUNC, Inc, Naperville, Ill., USA) for flow cytometry analysis; at density of 1×10^4 cells/well/100 μl in 96-well plate (TPP) for MTT assay; at 8×10^3 cells/ml. density in 24-well plates (NUNC) for DNA fragmentation ELISA. After allowing 12-24 hours for attachment and careful washing with serum-free medium (SFM), the cells were made quiescent in SFM for at least 12 hrs prior to treatment. Heparin-preserved plasma from the study groups was added to the monolayer at concentration of 10% in SFM.
The cells were harvested non-enzymatically with Cell Dissociation Solution (CDS; Sigma-Aldrich, St. Louis, Mo., USA). HUVECs were carefully pooled with supernatants, to exclude selective loss of detached floating EC, and centrifuged at 1200 rpm for 7 min. After resuspension in 100 μl of Annexin V-binding buffer (Molecular Probes Inc, Eugene, Oreg., USA) samples were stained with 5 mg/ml of Annexin V-FITC (Mol. Probes) and incubated for 15 min on ice. Shortly before acquisition 1 mg/ml of propidium iodide (PI; R&DSystems Europe Ltd, Abingdon, UK) was added. Analysis was performed on a FACScan flow cytometer (BD Biosciences, San Jose, Calif., USA) equipped with CellQuest™ software. During acquisition a gate was set to exclude events smaller than 230 on linear FCS and SSC scale. For each sample 10000 events were collected.
Heparin-preserved plasma with high capacity to inhibit Annexin V binding was added to HUVECs monolayer at concentration of 10% in SFM. After 24 hrs cells were harvested with Cell Dissociation Solution (CDS; Sigma-Aldrich, St. Louis, Mo., USA) and carefully pooled with supernatants, to exclude selective loss of detached floating cells, centrifugation at 1200 rpm for 7 min followed. After resuspension in 100 μl of annexin V-binding buffer (Molecular Probes Inc, Eugene, Oreg., USA) samples were stained with 2 μl of 5 mg/ml annexin V-FITC (Molecular Probes) and incubated for 15 min on ice. Shortly before acquisition 1 mg/ml of propidium iodide (PI; a vital dye; R&DSystems Europe Ltd, Abingdon, UK) was added. Analysis was performed as described above.
The frequency of HUVECs positive for Annexin V staining was determined either as percentage of annexin V^+/PI^− cells on a bivariate dot plot or percentage of Annexin V^+ cells based on a histogram. Annexin V-binding to HUVECs in the presence of serum known to decrease binding and preincubated with IVIG was determined.
On the technique in general: Flow cytometry measures light scatter and fluorescence of single cells or particles in a stream.

The conditions of data set [3]: humans; cited from earlier work.
The conditions of data set [4]: experimental animals; cited from earlier work.

Regarding `CCCCCCCCCCCCCCCCOC[C@H](COP(=O)([O-])OCC[N+](C)(C)C)OC(C)=O` [PAF], in data set [1], the “Serum binding to antigen” value is “decreased serum binding to antigen”. Moreover, in data set [2] (10 μg/ml), the “Mean % of APS, Av” value is on record as 135 % of APS; the “Median % of APS, Av” value is given as 132 % of APS; the “Mean % of APS” value is 100 % of APS and 155.6 % of APS and 149.8 % of APS; the “Median % of APS” value is 99 % of APS and 134 % of APS and 164 % of APS. In data set [2] (100 μg/ml), the “Mean % of APS, Av” value is 137 % of APS; the “Median % of APS, Av” value is 136 % of APS; the “Mean % of APS” value was 151 % of APS and 122 % of APS and 139 % of APS; the “Median % of APS” value is 145 % of APS and 116 % of APS and 147 % of APS. Also, in data set [2], the “Effect on Annexin V binding to endothelial cells” value (shortened to “Effect on Annexin V binding”) was “restored Annexin V binding”.

For `C[N+](C)(C)CCOP(=O)(O)O` [PC, phosphorylcholine], the “Effect on Annexin V binding” value in data set [2] was “no significant effect”.

As to “Annexin V: Annexin V protein, binds calcium and negatively charged phospholipids”, the “half-life in the circulation” value was “short half-life” in data set [3] and 5 to 15 min in data set [4].

Regarding lysophosphatidylcholine [Lyso PC], the “Serum binding to antigen” value in data set [1] is reported as “decreased serum binding to antigen”. Besides, in data set [2] (10 μg/ml), the “Mean % of APS, Av” value is listed as 150 % of APS; the “Median % of APS, Av” value was 146 % of APS; the “Mean % of APS” value is 123.6 % of APS and 156.9 % of APS and 169.5 % of APS; the “Median % of APS” value was 121.88 % of APS and 138.23 % of APS and 178.5 % of APS. Also, in data set [2] (100 μg/ml), the “Mean % of APS, Av” value is given as 156 % of APS; the “Median % of APS, Av” value is 155 % of APS; the “Mean % of APS” value is 158.1 % of APS and 114.7 % of APS and 195.12 % of APS; the “Median % of APS” value is 175.39 % of APS and 115.4 % of APS and 174.65 % of APS. For the same molecule, in data set [2] (all events (100.00 % gated)), the “Geo Mean (fluorescence)” value was 62.95, the “Mean (fluorescence)” value came out at 275.37, the “Median (fluorescence)” value is on record as 153.99 and the “Peak Ch” value was found to be 1. Also, in data set [2] (second histogram region), the “% Gated (Annexin V positive region)” value is reported as 67.03%, the “Geo Mean (fluorescence)” value turned out to be 268.96, the “Mean (fluorescence)” value is 408.50 and the “Median (fluorescence)” value is on record as 352.27. For the same molecule, the “Peak Ch” value in data set [2] (second histogram region) was 453. Moreover, the “Effect on Annexin V binding” value in data set [2] is given as “restored Annexin V binding”.

In the case of phosphatidylserine, the “Serum binding to antigen” value in data set [1] is reported as “decreased serum binding to antigen”. Further, in data set [2], the “Effect on Annexin V binding” value is recorded as “restored Annexin V binding”.

In the case of tetanus toxoid, in data set [2] (all events (100.00 % gated)), the “Geo Mean (fluorescence)” value was found to be 47.62, the “Mean (fluorescence)” value was 155.14, the “Median (fluorescence)” value is 113.42 and the “Peak Ch” value is 1. In data set [2] (second histogram region), the “% Gated (Annexin V positive region)” value is reported as 66.69%, the “Geo Mean (fluorescence)” value was 173.93, the “Mean (fluorescence)” value was found to be 230.12 and the “Median (fluorescence)” value stood at 212.88. The “Peak Ch” value in data set [2] (second histogram region) turned out to be 222.
